According to patent US20090270442A1, “POLYMORPHS OF HYDROCHLORIDE SALT OF 5-(3-(ETHYLSULFONYL)PHENYL)-3,8-DIMETHYL-N-(1-METHYLPIPERIDIN-4-YL)-9H-PYRIDO[2,3-B]INDOLE-7-CARBOXAMIDE AND METHODS OF USE THEREFOR” (TAKEDA PHARMACEUTICAL COMPANY LIMITED, priority 2008, published 2009):
≈ marks a conversion by molar mass, not a printed value. Where two headings read alike, the source gives them in different places.

How the values were obtained:
Assay type in all cases: physicochemical
[1] = 1 week slurry experiments in water, IPA, EtOAc, MeCN, EtOH and dioxane, form by XRPD (Table 34); conditions: for Form (1 wk): RT, resulting form by XRPD; for form isolated after slurry in water / form after slurry in non-aqueous solvents: room temperature, one week; for form after slurry in non-aqueous solvents: solvents other than water
Protocol: Each vial was charged with approximately 25-30 mg of API and 1 mL of the corresponding solvent, followed by stirring at room temperature for one week. […] The obtained solids were isolated by filtration, dried under vacuum at room temperature and analyzed by XRPD.

[2] = Moisture-sorption analysis (adsorption/desorption, then drying 1 h at 80° C. and XRPD) (Table 40); conditions: for XRPD pattern after drying: dried for one hour at 80° C.
Protocol: Moisture-sorption experiments were carried out on three forms by first drying the sample at 0% RH and 25° C. until an equilibrium weight was reached or for a maximum of four hours. The sample was then subjected to an isothermal (25° C.) adsorption scan from 10 to 90% RH in steps of 10%. The sample was allowed to equilibrate to an asymptotic weight at each point for a maximum of four hours. Following adsorption, a desorption scan from […] to 0% RH (at 25° C.) was run in steps of −10%, again allowing a maximum of four hours for equilibration to an asymptotic weight. The sample was then dried for one hour at 80° C. and the resulting solid analyzed by XRPD.

[3] = Karl Fischer analysis (KF), water content; conditions: for water content by KF: theoretical for a monohydrate 3.2%
Protocol: Water content was determined by adding solid sample to the instrument with HYDRANAL-Coulomat AD. Micrograms of water were determined by coulometric titration.

[4] = Humidity chamber study at 0% and 95% RH, one week, XRPD and KF (Table 38); conditions: ambient temperature
Protocol: The 0% RH chamber was prepared with drierite and the 95% RH chamber was made with a saturated solution of Na2HPO4.12H2O in DI water. The chambers were equilibrated for >1 week prior to introducing samples. Samples were placed in Teflon-lined caps for scintillation vials and allowed to equilibrate for one week then analyzed by XRPD and KF to determine form and water content.
FIG. 60 summarizes the conversion of the forms of Compound 1 observed from slurry and humidity chamber studies.

[5] = MeCN/water slurry experiments of Forms A and C at ambient temperature (Table 35); conditions: MeCN/water at different ratios
Protocol: Slurry experiments of Compound 1, Forms A and C, were conducted in mixtures of MeCN and water. Each vial was charged with approximately 40 mg of Compound 1 (pure Form A, pure Form C, or 50:50 mixtures) and 2 mL of MeCN/water mixture in a 1:9, 1:1, and 9:1 ratio. […] All samples were stirred at room temperature for approximately 24 hours. An aliquot (1 mL) of the suspension was taken from the slurries (samples #1, 3, 4, 6, 7 and 9) for determination of form by XRPD. All aliquots were filtered and dried in vacuo at 30 mm Hg and ambient temperature. All samples were stirred at ambient temperature for an additional six days, filtered, dried, and again the solid form and filterability were determined.

[6] = Solubility study of Form A in DI water and 20 mM phosphate buffer (pH 3.2) (Table 37); conditions: for pH (final, 1 week): supernatant after 1 week slurry; for solubility at 1 day: read-out: Solubility mg/mL (1 day); for solubility at 1 week: read-out: Solubility mg/mL (1 week)
Protocol: The solubility measurement of Compound 1 Form A was performed in DI water (Milli-Q) and in 20 mM phosphate buffer (pH 3.2), see Table 37. Each vial was charged with 50-55 mg of Compound 1 and 1 mL of the corresponding solvent.
Both slurries were stirred at room temperature for approximately 19 hours. An aliquot (0.2 mL) was taken from each sample for the solubility determination and XRPD test. […] Both slurries were allowed to stir for an additional 6 days at room temperature. The pH of the supernatant liquid and solubility were determined following the 1 week slurry.

[7] = Drying study of Form A under vacuum at 40-85° C., XRPD and OVI (Table 39)
Protocol: Approximately 100 mg of sample was weighed into an individual 20-mL headspace vial and 5 mL of DMSO added. The vial was then sealed and gentle shaking/vortexing was used to ensure sample was entirely dissolved. Blank samples were prepared by transferring 5.0 mL of DMSO into a 20-mL headspace vial and then sealed. Standards were prepared using stock solutions in DMSO. Compound 1 (4.08 g, Form A) was dried under vacuum at 40° C. overnight. A small sample (˜200 mg) was taken for XRPD and OVI tests. The rest of the material was further dried under vacuum at 55° C. overnight. A second sample (˜200 mg) was taken for XRPD and OVI tests. The oven temperature was increased to 70° C. and the material was further dried under vacuum at 70° C. overnight. A third sample (˜200 mg) was taken for XRPD and OVI tests. The oven temperature was then increased to 85° C. and the material was further dried under vacuum over weekend. Analysis by XRPD and OVI was completed as shown in Table 39 along with experimental details.

[8] = Solvent screen: solubility of Compound 1 in various solvents (Table 16)
Protocol: Compound 1 as prepared by the method described in Example I may be used as the starting material for preparation of other polymorphic forms. The methods for testing the solubility of Compound 1 are described in Example 3, and the solubilities of Compound 1 in various solvents are summarized in Table 16. […] A solubility study of Compound 1 in various solvents was executed to select appropriate solvents for the further crystallizations. The material was placed in vials and the solvent was added in 250 μL portions. Solvents were picked based on differences in polarity and functionality and on their classification according to the International Conference on Harmonization (ICH), with preferences given to class II and class III solvents. After each addition of solvent, the vials were visually inspected for residual solids, and further heating to 55° C. to ensure dissolution.

[9] = 20 mM phosphate buffer slurry, room temperature
[10] = DI water slurry, room temperature

## CCS(=O)(=O)c1cccc(-c2cc(C(=O)NC3CCN(C)CC3)c(C)c3[nH]c4ncc(C)cc4c23)c1 [Form N]
[1]; 1 week slurry in Dioxane (1.0 mL)
  Form (1 wk): C + P
[1]; 1 week slurry in EtOAc (1.0 mL)
  Form (1 wk): C + P
[1]; 1 week slurry in IPA (1.0 mL)
  Form (1 wk): C + P
[1]
  form isolated after slurry in water: Form A

## CCS(=O)(=O)c1cccc(-c2cc(C(=O)NC3CCN(C)CC3)c(C)c3[nH]c4ncc(C)cc4c23)c1 [Form C]
[2]; 25° C.
  hygroscopicity (moisture sorption curve): slightly hygroscopic
  hysteresis upon desorption: not observed
[2]; at 90% RH, 25° C.
  maximum water uptake: 1.9%
[2]
  XRPD pattern after drying: consistent to the starting form
[3]
  water content by KF: 1.4%
[4]; 95% RH for one week
  form after humidity exposure: converted to Form A
[1]
  form after slurry in non-aqueous solvents: stable anhydrate form in non-aqueous environments
  form isolated after slurry in water: converted to the monohydrate Form A
[5]
  form after acetonitrile/water slurries: converted to the monohydrate Form A

## CCS(=O)(=O)c1cccc(-c2cc(C(=O)NC3CCN(C)CC3)c(C)c3[nH]c4ncc(C)cc4c23)c1 [Form A]
[6]; [9]
  XRPD (1 week): Form A
  XRPD (1 day): Form A
[6]; 20 mM phosphate buffer
  pH (final, 1 week): 3.3
[6]; DI water and 20 mM phosphate buffer (pH 3.2), thermodynamic from solid, DI water and phosphate buffer slurries, after equilibration overnight and 1 week, room temperature
  solubility: 3000 to 4000 µg/mL (≈ 5.94 to 7.93 mM)
[6]; [10]
  XRPD (1 week): Form A
  XRPD (1 day): Form A
[6]; DI water
  pH (final, 1 week): 5.0
[6]; aqueous buffer, thermodynamic from solid, 20 mM phosphate buffer, initial pH 3.2, room temperature
  solubility at 1 day: 3.3 mg/mL (≈ 6.54 mM)
[6]; pH 3.2, aqueous buffer, thermodynamic from solid, 20 mM phosphate buffer, room temperature
  solubility at 1 week: 4.1 mg/mL (≈ 8.12 mM)
[6]; pH 8.1, thermodynamic from solid, DI water, room temperature
  solubility at 1 week: 4.3 mg/mL (≈ 8.52 mM)
[6]; thermodynamic from solid, DI water, initial pH 8.1, room temperature
  solubility at 1 day: 3.1 mg/mL (≈ 6.14 mM)
[2]; 25° C.
  stability of the hydrate over relative humidity (moisture sorption curve): stable from 5 to 90% RH
[2]; at 90% RH, 25° C.
  maximum moisture uptake: 4.2 wt %
[2]
  XRPD pattern after drying: consistent with Form A
[3]; another sample, after heating
  water content by KF after heating: 3.0%
[3]; another sample, before heating
  water content by KF before heating: 3.1%
[3]
  water content by KF: 3.7%
[4]; 0 and 95% RH for one week
  change in form upon humidity exposure: did not show a change in form
[7]; dried under vacuum at 40° C., time at temperature 16
  Residual Amt of MeCN by OVI (ppm): 1353 ppm
[7]; dried under vacuum at 55° C., time at temperature 24 (total 40)
  Residual Amt of MeCN by OVI (ppm): 1303 ppm
[7]; dried under vacuum at 70° C., time at temperature 24 (total 64)
  Residual Amt of MeCN by OVI (ppm): 1113 ppm
[7]; dried under vacuum at 85° C., time at temperature 72 (total 136)
  Residual Amt of MeCN by OVI (ppm): 670 ppm

## CCS(=O)(=O)c1cccc(-c2cc(C(=O)NC3CCN(C)CC3)c(C)c3[nH]c4ncc(C)cc4c23)c1 [Form L]
[2]; 25° C.
  hygroscopicity (moisture sorption curve): moderately hygroscopic
  hysteresis upon desorption: not observed
[2]; at 90% RH, 25° C.
  maximum water uptake: 3.9%
[2]
  XRPD pattern after drying: same pattern before and after drying
[3]
  water content by KF: 2.9%
[1]
  form after slurry in non-aqueous solvents: to the anhydrate Form C
  form isolated after slurry in water: convert to the monohydrate Form A

## CCS(=O)(=O)c1cccc(-c2cc(C(=O)NC3CCN(C)CC3)c(C)c3[nH]c4ncc(C)cc4c23)c1.Cl [Compound 1, 5-(3-(ethylsulfonyl)phenyl)-3,8-dimethyl-N-(1-methylpiperidin-4-yl)-9H-pyrido[2,3-b]indole-7-carboxamide hydrochloride]
[8]; 55 °C, thermodynamic from solid, solvent water, Temp 55, Soluble No, read-out: Conc.
  solubility: ≤ 600 µg/mL
[8]; in acetone, MeCN, MTBe, EtOAc, IPAc, IPA, THF, 2-Me-THF, DCM, MEK, cyclohexane, heptane and water
  solubility: Poor solubility
[8]; in dioxane, MeOH, DMF, DMA, NMP, AcOH and EtOH
  solubility: Good solubility
[8]; solvent 2-Me-THF, 0.4 mg/mL, Temp 55
  Soluble: No
[8]; solvent 2-Me-THF, Temp 55, Soluble No
  Conc.: 400 µg/mL
[8]; solvent AcOH, >9.2 mg/mL, Temp RT
  Soluble: Yes
[8]; solvent AcOH, Temp RT, Soluble Yes
  Conc.: >9200 µg/mL
[8]; solvent Acetone, 0.3 mg/mL, Temp 55
  Soluble: No
[8]; solvent Acetone, Temp 55, Soluble No
  Conc.: 300 µg/mL
[8]; solvent Chloroform, >8.4 mg/mL, Temp RT
  Soluble: Yes
[8]; solvent Chloroform, Temp RT, Soluble Yes
  Conc.: >8400 µg/mL
[8]; solvent DCM, 0.8 mg/mL, Temp RT
  Soluble: No
[8]; solvent DCM, Temp RT, Soluble No
  Conc.: 800 µg/mL
[8]; solvent DMA, >9.2 mg/mL, Temp RT
  Soluble: Yes
[8]; solvent DMA, Temp RT, Soluble Yes
  Conc.: >9200 µg/mL
[8]; solvent DMF, >10.4 mg/mL, Temp RT
  Soluble: Yes
[8]; solvent DMF, Temp RT, Soluble Yes
  Conc.: >10400 µg/mL
[8]; solvent Dioxane, 0.7 mg/mL, Temp 55
  Soluble: Yes
[8]; solvent Dioxane, Temp 55, Soluble Yes
  Conc.: 700 µg/mL
[8]; solvent EtOAc, 0.4 mg/mL, Temp 55
  Soluble: No
[8]; solvent EtOAc, Temp 55, Soluble No
  Conc.: 400 µg/mL
[8]; solvent EtOH, 1.2 mg/mL, Temp 55
  Soluble: Yes
[8]; solvent EtOH, Temp 55, Soluble Yes
  Conc.: 1200 µg/mL
[8]; solvent Heptane, 0.4 mg/mL, Temp 55
  Soluble: No
[8]; solvent Heptane, Temp 55, Soluble No
  Conc.: 400 µg/mL
[8]; solvent IPA, 0.5 mg/mL, Temp 55
  Soluble: No
[8]; solvent IPA, Temp 55, Soluble No
  Conc.: 500 µg/mL
[8]; solvent IPAC, 0.5 mg/mL, Temp 55
  Soluble: No
[8]; solvent IPAC, Temp 55, Soluble No
  Conc.: 500 µg/mL
[8]; solvent MEK, 0.6 mg/mL, Temp 55
  Soluble: No
[8]; solvent MEK, Temp 55, Soluble No
  Conc.: 600 µg/mL
[8]; solvent MTBE, 0.3 mg/mL, Temp 55
  Soluble: No
[8]; solvent MTBE, Temp 55, Soluble No
  Conc.: 300 µg/mL
[8]; solvent MeCN, 0.5 mg/mL, Temp 55
  Soluble: No
[8]; solvent MeCN, Temp 55, Soluble No
  Conc.: 500 µg/mL
[8]; solvent MeOH, >10.0 mg/mL, Temp RT
  Soluble: Yes
[8]; solvent MeOH, Temp RT, Soluble Yes
  Conc.: >10000 µg/mL
[8]; solvent NMP, >10.4 mg/mL, Temp RT
  Soluble: Yes
[8]; solvent NMP, Temp RT, Soluble Yes
  Conc.: >10400 µg/mL
[8]; solvent THF, 0.4 mg/mL, Temp 55
  Soluble: No
[8]; solvent THF, Temp 55, Soluble No
  Conc.: 400 µg/mL
[8]; solvent Toluene, 0.4 mg/mL, Temp 55
  Soluble: No
[8]; solvent Toluene, Temp 55, Soluble No
  Conc.: 400 µg/mL
[8]; solvent c-Hexane, 0.5 mg/mL, Temp 55
  Soluble: No
[8]; solvent c-Hexane, Temp 55, Soluble No
  Conc.: 500 µg/mL
[8]; solvent water, 0.6 mg/mL, Temp 55
  Soluble: No
